# Patent US7592347B2, “Piperazine derivates and their use for the treatment of neurological and psychiatric diseases” (Glaxo Group Limited, priority 2003, dated 2009)
# Structures can show the parent of a compound that is named as a salt.
# Molecular target: T1, histamine H3 receptor (Homo sapiens, UniProt Q9Y5N1)
# T1 construct: expressed in transfected cells; host or cells: CHO K1 cells carrying pSwitch, transfected with pGeneH3 and induced with mifepristone; clone 3H3; membranes
# Experiment: Histamine H3 functional antagonist assay ([35S]GTPγS SPA, membranes of CHO K1 cells expressing human H3)
# Format: biochemical
# Details: functional antagonism of histamine (0.3 μM) stimulated [35S]GTPγS binding, membranes of CHO K1 cells with human histamine H3
# Description: A membrane preparation containing histamine H3 receptors may be prepared in accordance with the following procedures:
# Ligated DNA was transformed into competent DH5α E. coli host bacterial cells and plated onto Luria Broth (LB) agar containing Zeocin™ (an antibiotic which allows the selection of cells expressing the sh ble gene which is present on pGene and pSwitch) at 50 μg ml^−1. Colonies containing the re-ligated plasmid were identified by restriction analysis. DNA for transfection into mammalian cells was prepared from 250 ml cultures of the host bacterium containing the pGeneH3 plasmid and isolated using a DNA preparation kit (Qiagen Midi-Prep) as per manufacturers guidelines (Qiagen).
# CHO K1 cells previously transfected with the pSwitch regulatory plasmid (InVitrogen) were seeded at 2×10e6 cells per T75 flask in Complete Medium, containing Hams F12 (GIBCOBRL, Life Technologies) medium supplemented with 10% v/v dialysed foetal bovine serum, L-glutamine, and hygromycin (100 μg ml^−1), 24 hours prior to use. Plasmid DNA was transfected into the cells using Lipofectamine plus according to the manufacturers guidelines (InVitrogen). 48 hours post transfection cells were placed into complete medium supplemented with 500 μg ml^−1 Zeocin™.
# 10-14 days post selection 10 nM Mifepristone (InVitrogen), was added to the culture medium to induce the expression of the receptor. […] Approximately 1×10e7 cells were examined for receptor expression by staining with a rabbit polyclonal antibody, 4a, raised against the N-terminal domain of the histamine H3 receptor, incubated on ice for 60 minutes, followed by two washes in sorting medium. […] Following two further washes with Sorting Medium, cells were filtered through a 50 μm Filcon™ (BD Biosciences) and then analysed on a FACS Vantage SE Flow Cytometer fitted with an Automatic Cell Deposition Unit. […] Positively stained cells were sorted as single cells into 96-well plates, containing Complete Medium containing 500 μg ml^−1 Zeocin™ and allowed to expand before reanalysis for receptor expression via antibody and ligand binding studies.
# All steps of the protocol are carried out at 4° C. and with pre-cooled reagents. The cell pellet is resuspended in 10 volumes of buffer A2 containing 50 mM N-2-hydroxyethylpiperazine-N′-2-ethanesulfonic acid (HEPES)(pH 7.40) supplemented with 10e−4M leupeptin (acetyl-leucyl-leucyl-arginal; Sigma L2884), 25 μg/ml bacitracin (Sigma B0125), 1 mM ethylenediamine tetra-acetic acid (EDTA), 1 mM phenylmethylsulfonyl fluoride (PMSF) and 2×10e−6M pepstain A (Sigma). The cells are then homogenised by 2×15 second bursts in a 1 litre glass Waring blender, followed by centrifugation at 500 g for 20 minutes. The supernatant is then spun at 48,000 g.for 30 minutes. The pellet is resuspended in 4 volumes of buffer A2 by vortexing for 5 seconds, followed by homogenisation in a Dounce homogeniser (10-15 strokes). At this point the preparation is aliquoted into polypropylene tubes and stored at −70° C. […]
# The plate is then incubated on a shaker at room temperature for 30 minutes followed by centrifugation for 5 minutes at 1500 rpm. The plate is read between 3 and 6 hours after completion of centrifuge run in a Wallac Microbeta counter on a 1 minute normalised tritium count protocol. Data is analysed using a 4-parameter logistic equation. Basal activity used as minimum i.e. histamine not added to well.
# T1 sequence (Q9Y5N1 whole entry): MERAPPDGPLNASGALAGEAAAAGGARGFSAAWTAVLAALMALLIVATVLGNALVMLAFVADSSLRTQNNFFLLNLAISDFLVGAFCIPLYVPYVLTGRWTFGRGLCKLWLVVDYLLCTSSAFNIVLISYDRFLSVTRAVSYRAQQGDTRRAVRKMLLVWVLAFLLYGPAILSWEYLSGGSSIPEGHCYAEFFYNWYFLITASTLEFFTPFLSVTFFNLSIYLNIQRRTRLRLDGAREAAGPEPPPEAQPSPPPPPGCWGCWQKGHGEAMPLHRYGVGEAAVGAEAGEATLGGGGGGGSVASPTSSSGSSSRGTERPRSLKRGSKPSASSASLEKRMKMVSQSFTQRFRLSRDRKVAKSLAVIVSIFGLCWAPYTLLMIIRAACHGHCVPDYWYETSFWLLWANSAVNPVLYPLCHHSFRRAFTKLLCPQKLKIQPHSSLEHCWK
row,Kb [nM],SMILES
1,< 1,"CCC(=O)c1ccc(N2CCC(C(=O)N3CCCN(C(C)C)CC3)CC2)cc1 [Example E151, 1-Isopropyl-4-[1-(4-propanoylphenyl)-piperidine-4-carbonyl]-[1,4]-diazepane]"
2,< 3.16,"CC(C)N1CCCN(C(=O)C2CCN(c3ccc(C#N)c(C(F)(F)F)c3)CC2)CC1 [Example E44, 1-Isopropyl4-[1-(4-cyano-3-trifluoromethyl-phenyl)-piperidine-4-carbonyl]-[1,4]-diazepane]"
3,< 3.16,"CC(C)N1CCCN(C(=O)C2CCN(c3ccc(C#N)cc3F)CC2)CC1 [Example E43, 1-Isopropyl-4-[1-(4-cyano-2-fluoro-phenyl)-piperidine-4-carbonyl]-[1,4]-diazepane]"
4,< 3.16,"O=C(C1CCN(c2ccc(C(F)(F)F)cn2)CC1)N1CCN(C2CCC2)CC1 [Example E16, 1-Cyclobutyl-4-[1-(5-trifluoromethylpyridin-2-yl)-piperidine-4-carbonyl]-piperazine]"
5,< 3.16,"CC(C)N1CCCN(C(=O)C2CCN(c3ccc(C#N)nc3)CC2)CC1 [Example E180, 1-Isopropyl-4-[1-(6-cyano-pyridin-3-yl)-piperidine-4-carbonyl]-[1,4]-diazepane]"
6,< 3.16,"Cc1ccc2cc(N3CCC(C(=O)N4CCN(C(C)C)CC4)CC3)ccc2n1 [Example E118, 1-Isopropyl-4-[1-(2-methyl-quinolin-6-yl)-piperidine-4-carbonyl]-piperazine]"
7,< 3.16,"CC(C)N1CCN(C(=O)C2CCN(c3cnc(C(F)(F)F)cn3)CC2)C[C@@H]1C [Example E87, (S)-1-Isopropyl-4-[1-(5-trifluoromethyl-pyrazin-2-yl)-piperidine4-carbonyl]-2-methyl piperazine]"
8,< 3.16,"CC(C)N1CCN(C(=O)C2CCN(c3ncc(-c4ccc(S(C)(=O)=O)cc4)cn3)CC2)CC1 [Example E25, 1-Isopropyl-4-{1-[5-(4-methylsulfonylphenyl)-pyrimidin-2-yl]-piperidine-4-carbonyl}-piperazine]"
9,< 3.16,"CC(=O)c1ccc(N2CCC(C(=O)N3CCCN(C4CCC4)CC3)CC2)cc1 [Example E170, 1-Cyclobutyl-4-[1-(4-acetylphenyl)-piperidine-4-carbonyl]-[1,4]-diazepane]"
10,< 3.16,"COc1ccc(N2CCC(C(=O)N3CCCN(C(C)C)CC3)CC2)cn1 [Example E62, 1-Isopropyl-4-[1-(6-methoxypyridin-3-yl)-piperidine-4-carbonyl]-[1,4]-diazepane]"
11,< 3.16,"O=C(C1CCN(c2ccc(C(F)(F)F)nc2)CC1)N1CCN(C2CCC2)CC1 [Example E97, 1-Cyclobutyl-4-[1-(6-trifluoromethylpyridin-3-yl)-piperidine-4-carbonyl]piperazine]"
12,< 3.16,"O=C(C1CCN(c2cccc(C(F)(F)F)n2)CC1)N1CCN(C2CCC2)CC1 [Example E15, 1-Cyclobutyl-4-[1-(6-trifluoromethylpyridin-2-yl)-piperidine-4-carbonyl]-piperazine]"
13,< 3.16,"CC(C)N1CCN(C(=O)C2CCN(c3ccc(C#N)cn3)CC2)C[C@@H]1C [Example E86, (S)-1-Isopropyl-4-[1-(5-cyanopyridin-2-yl)-piperidine4-carbonyl]-2-methyl piperazine]"
14,< 3.16,"N#Cc1ccc(N2CCC(C(=O)N3CCN(C4CCC4)CC3)CC2)cc1C(F)(F)F [Example E12, 1-Cyclobutyl-4-[1-(4-cyano-3-trifluoromethylphenyl)-piperidine-4-carbonyl]-piperazine]"
15,< 0.316,"CC(C)N1CCCN(C(=O)C2CCN(c3ccc(C(F)(F)F)nc3)CC2)CC1 [Example E135, 1-Isopropyl-4-[1-(6-trifluoromethylpyridin-3-yl)-pipenidine-4-carbonyl]-[1,4]-diazepane, hydrochloride]"
16,< 3.16,"Cc1noc(-c2ccc(N3CCC(C(=O)N4CCN(C(C)C)CC4)CC3)cc2)n1 [Example E185, 1-Isopropyl-4-{1-[4-(3-methyl-1,2,4-oxadiazol-5-yl)phenyl]-piperidine-4-carbonyl}-piperazine]"
17,< 3.16,"N#Cc1ccc(N2CCC(C(=O)N3CCCN(C4CCC4)CC3)CC2)cc1Cl [Example E66, 1-Cyclobutyl-4-[1-(4-cyano-3-chlorophenyl)-piperidine4-carbonyl]-[1,4]-diazepane]"
18,< 3.16,"O=C(C1CCN(c2ccc(C(F)(F)F)nc2)CC1)N1CCCN(C2CCC2)CC1 [Example E136, 1-Cyclobutyl-4-[1-(6-trifluoromethylpyridin-3-yl)-piperidine4-carbonyl]-[1,4]-diazepane]"
19,< 3.16,"CC(C)N1CCCN(C(=O)C2CCN(c3ccc(Cl)c(Cl)c3)CC2)CC1 [Example E54, 1-Isopropyl-4-[1-(3,4-dichlorophenyl)-piperidine-4-carbonyl]-[1,4]-diazepane]"
20,< 3.16,"N#Cc1cc(F)c(N2CCC(C(=O)N3CCN(C4CCC4)CC3)CC2)c(F)c1 [Example E11, 1-Cyclobutyl4-[1-(4-cyano-2,6-difluorophenyl)-piperidine-4-carbonyl]-piperazine]"
21,< 3.16,"CC(C)N1CCN(C(=O)C2CCN(c3ccc(C#N)cn3)CC2)CC1 [Example E1, 1-Isopropyl-4-[1-(5-cyano-pyridin-2-yl)-piperidine4-carbonyl]-piperazine hydrochloride]"
22,< 3.16,"CC(=O)Nc1ccc(N2CCC(C(=O)N3CCCN(C(C)C)CC3)CC2)cc1F [Example E169, 1-Isopropyl-4-[1-(4-acetamido-3-fluorophenyl)-piperidine4-carbonyl]-[1,4]-diazepane]"
23,< 3.16,"O=C(C1CCN(c2ncc(C(F)(F)F)cc2Cl)CC1)N1CCN(C2CCC2)CC1 [Example E17, 1-Cyclobutyl-4-[1-(3-chloro-5-trifluoromethylpyridin-2-yl)-piperidine-4-carbonyl]-piperazine]"
24,< 3.16,"CC(C)N1CCCN(C(=O)C2CCN(c3ccc(OC(F)F)cc3)CC2)CC1 [Example E59, 1-Isopropyl-4-[1-(4-difluoromethoxyphenyl)-piperidine-4-carbonyl]-[1,4]-diazepane]"
25,< 1,"N#Cc1ccc(N2CCC(C(=O)N3CCCN(C4CCC4)CC3)CC2)nc1 [Example E37, 1-Cyclobutyl-4-[1-(5-cyanopyridin-2-yl)-piperidine4-carbonyl]-[1,4]-diazepane]"
26,< 3.16,"CC(C)N1CCCN(C(=O)C2CCN(c3cc(F)c(C#N)cc3F)CC2)CC1 [Example E39, 1-Isopropyl-4-[1-(4-cyano-2,5-difluorophenyl)-piperidine-4-carbonyl]-[1,4]-diazepane]"
27,< 3.16,"CC(C)N1CCCN(C(=O)C2CCN(c3ccc(C(F)(F)F)nn3)CC2)CC1 [Example E138, 1-Isopropyl-4-[1-(6-trifluoromethylpyridazin-3-yl)-piperidine-4-carbonyl]-[1,4]-diazepane]"
28,< 3.16,"CC(C)N1CCN(C(=O)C2CCN(c3ccc(C#N)nc3)CC2)C[C@@H]1C [Example E78, (S)-1-Isopropyl-4-[1-(6-cyanopyridin-3-yl)-piperidine-4-carbonyl]-2-methyl piperazine]"
29,< 3.16,"CC(C)N1CCN(C(=O)C2CCN(c3ccc(C(=O)N4CCOCC4)cc3)CC2)CC1 [Example E30, 1-Isopropyl-4-{1-[4-(morpholino-carbonyl)-phenyl]-piperidine-4-carbonyl}-piperazine hydrochloride]"
30,< 3.16,"CC(C)N1CCCN(C(=O)C2CCN(c3ccc(C(F)(F)F)cc3)CC2)CC1 [Example E45, 1-Isopropyl-4-[1-(4-trifluoromethyl-phenyl)-piperidine-4-carbonyl]-[1,4]-diazepane]"

row,SMILES,Kb [nM]
1,"CC(C)N1CCCN(C(=O)C2CCN(c3ccc(C#N)c(F)c3F)CC2)CC1 [Example E63, 1-Isopropyl-4-[1-(4-cyano-2,3-difluorophenyl)-piperidine-4-carbonyl]-[1,4]-diazepane]",< 3.16
2,"N#Cc1ccc(N2CCC(C(=O)N3CCCN(C4CCC4)CC3)CC2)cc1F [Example E67, 1-Cyclobutyl-4-[1-(4-cyano-3-fluorophenyl)-piperidine4-carbonyl]-[1,4]-diazepane]",< 3.16
